Results: patent US5449662A, “Atrial natriuretic peptide clearance inhibitors which resist degradation” (Scios Nova Inc., priority 1992, dated 1995)
Numbered stars: 1 amine (or outer) side, 2 acyl side, 3 side chain; on linkers, the order of the positions; unused ones are H or OH. Square brackets hold non-standard residues; d marks the D form. Peptide text beside a SMILES is read from it. * marks the point of attachment. X4 = O=C(NO)C(Cc1ccccc1)N(CC(=O)[*:2])[*:1]; γGlu = O=C(O)[C@H](CCC(=O)[*:2])N[*:1]; X2 = O=C(Cc1ccc(N[*:1])cc1)[*:2]; X3 = O=C(O)C(Cc1ccccc1)NCCC(=O)*; X1 = O=C(C(CS)Cc1ccccc1)*

How the values were obtained:
[1] = molecular target: T1, Endopeptidase 24.11 (Rattus norvegicus, UniProt P07861); assay: Inhibition of endopeptidase 24.11 (cleavage of rANP(99-126), HPLC); type: biochemical; conditions: for inhibition at 0.02 µM: 20 nM; for inhibition at 0.02 µM / inhibition at 0.1 µM / inhibition at 1 µM / inhibition at 10 µM: read-out: % Inhibition of Metabolite Formation; for inhibition at 0.1 µM: 100 nM
T1 construct: rat urine was collected and desalted on Sephadex G-25; from tissue; host or cells: rat urine, desalted on Sephadex G-25
T1 sequence (P07861 1-750): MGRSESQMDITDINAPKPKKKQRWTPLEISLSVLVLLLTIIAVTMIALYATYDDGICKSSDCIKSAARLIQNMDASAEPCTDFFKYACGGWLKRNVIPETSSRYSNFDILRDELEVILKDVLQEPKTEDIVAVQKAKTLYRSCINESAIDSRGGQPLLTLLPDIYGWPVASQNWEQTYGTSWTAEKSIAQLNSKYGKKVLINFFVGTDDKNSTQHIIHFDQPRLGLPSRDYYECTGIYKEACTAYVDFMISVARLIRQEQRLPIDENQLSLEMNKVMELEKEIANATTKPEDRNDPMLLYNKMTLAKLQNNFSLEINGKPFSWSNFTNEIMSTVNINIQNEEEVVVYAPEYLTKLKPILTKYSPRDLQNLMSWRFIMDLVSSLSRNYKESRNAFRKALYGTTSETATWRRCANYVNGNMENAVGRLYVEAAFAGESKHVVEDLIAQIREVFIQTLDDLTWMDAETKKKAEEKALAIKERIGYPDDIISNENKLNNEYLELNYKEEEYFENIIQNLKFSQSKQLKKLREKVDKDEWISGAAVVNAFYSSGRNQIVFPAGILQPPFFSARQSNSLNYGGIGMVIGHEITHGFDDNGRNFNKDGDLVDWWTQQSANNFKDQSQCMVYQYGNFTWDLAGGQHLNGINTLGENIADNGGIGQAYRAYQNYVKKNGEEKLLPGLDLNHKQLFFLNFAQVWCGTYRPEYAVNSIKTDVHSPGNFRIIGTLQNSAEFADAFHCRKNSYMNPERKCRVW
Experimental: Endopeptidase 24.11 inactivates ANP by cleavage at the Cys^105 -Phe^106 amide bond. The ability of the compounds of the invention to inhibit this degradation was assayed by a modification of the procedure of Ura, N., et al, Kidney Int (1987) 32:507-513 by substituting rANP(99-126) for bradykinin as a substrate.
Briefly, rat urine was collected and desalted on Sephadex G-25 as described by Ura (supra) and 4 ul of sample in 100 ul 0.1M Tris buffer, pH 7.2 containing aminopeptidase inhibitor bestatin (10 ug/ml), potato tuber carboxy peptidase inhibitor (10 ug/ml) and aprotinin (5,000 kalikrein inhibitory unit/ml) were incubated for 15 min at 37° C. The assay was then initiated by addition of 2-10 ug rANP(99-126) to a final volume of 0.5 ml and incubated at 10-20 min at 37° C. Termination of the reaction was accomplished by boiling, spinning and freezing.
Compounds to be tested for their ability to inhibit the endopeptidase were added to the preincubation mixture 15 min before addition of substrate.
The frozen samples, incubated with or without inhibitor, were thawed and analyzed by HPLC to determine the concentration of starting rANP(99-126) and its degradation product. HPLC analysis was conducted on Vydac C18 reverse phase HPLC column (4.6 mm ID×12.5 cm; 5 uM, 300A). A linear gradient of 15-35% acetonitrile containing 0.1% TFA was run at 1.0 ml/min on a Perkin-Elmer series 4 HPLC system. The effluent was monitored at 220 nm and the peptide peak heights measured.
The results were computed as the percent of the Cys^105 -Phe^106 cleavage metabolite peak in the test sample as compared to the peak height for this metabolite in the control.

[2] = molecular target: T2, ANP clearance receptor on bovine aortic smooth muscle (BASM) cells (Bos taurus, UniProt P10730); assay: BASM receptor binding assay (competition with I125 labeled rANP(102-126)); conditions: read-out: Ki(app)
T2 construct: endogenous in cells; host or cells: bovine aortic smooth muscle (BASM) cells
T2 sequence (P10730 42-537): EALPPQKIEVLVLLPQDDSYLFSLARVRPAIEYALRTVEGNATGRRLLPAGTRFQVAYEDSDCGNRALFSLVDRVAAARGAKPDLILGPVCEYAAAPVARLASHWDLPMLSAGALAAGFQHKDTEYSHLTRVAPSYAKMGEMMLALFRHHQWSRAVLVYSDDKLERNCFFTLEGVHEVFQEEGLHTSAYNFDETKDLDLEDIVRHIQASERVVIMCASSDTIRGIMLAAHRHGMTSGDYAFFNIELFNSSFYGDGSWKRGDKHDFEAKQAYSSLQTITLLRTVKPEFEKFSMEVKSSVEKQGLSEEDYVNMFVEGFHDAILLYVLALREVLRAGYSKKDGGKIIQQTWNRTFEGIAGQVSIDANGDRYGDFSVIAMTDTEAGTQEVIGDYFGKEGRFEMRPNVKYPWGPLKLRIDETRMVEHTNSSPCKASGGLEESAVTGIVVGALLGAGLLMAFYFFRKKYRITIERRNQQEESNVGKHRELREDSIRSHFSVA
From the text: (§1) The assay systems used are adapted from those of Schenk, D. B., et al, Biochem Biophys Res Commun (1985) 127:433-442 and Scarborough, R. M., J Biol Chem (1986) 261:12960-12964. These assays measure clearance receptor binding affinity through competition with ANP using the receptors on bovine aortic smooth muscle (BASM) or bovine aortic endothelial (BAE) cells. Also employed is the receptor binding affinity assay for the clearance receptor in isolated perfused rat kidney as described by Maack, T., et al, Science (1987) 238:675-679.

[3] = molecular target: T3, clearance receptor in isolated perfused rat kidney (Rattus norvegicus, UniProt P41740); assay: Rat kidney receptor binding assay (isolated perfused rat kidney); conditions: labeled compound 4 × 10^-12 M + competitor 1 × 10^-6 M; n = 2
T3 construct: the clearance receptor in isolated perfused rat kidney; from tissue; host or cells: isolated perfused rat kidney
T3 sequence (P41740 41-535): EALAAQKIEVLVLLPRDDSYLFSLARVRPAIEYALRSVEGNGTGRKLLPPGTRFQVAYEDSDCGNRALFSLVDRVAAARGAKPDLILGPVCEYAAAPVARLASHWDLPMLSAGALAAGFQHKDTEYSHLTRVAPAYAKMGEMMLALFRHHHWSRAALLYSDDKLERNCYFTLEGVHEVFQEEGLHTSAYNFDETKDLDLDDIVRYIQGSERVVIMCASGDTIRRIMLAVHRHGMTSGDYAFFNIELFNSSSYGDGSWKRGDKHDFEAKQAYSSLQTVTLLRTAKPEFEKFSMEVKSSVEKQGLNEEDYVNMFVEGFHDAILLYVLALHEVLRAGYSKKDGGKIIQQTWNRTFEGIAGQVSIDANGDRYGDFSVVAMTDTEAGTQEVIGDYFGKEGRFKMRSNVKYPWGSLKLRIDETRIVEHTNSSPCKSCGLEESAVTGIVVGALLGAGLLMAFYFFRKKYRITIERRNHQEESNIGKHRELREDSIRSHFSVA
From the text: as §1
In the rat kidney receptor binding assay, the native 28-residue labeled ANP was used: I^125 labeled rANP(99-126), with the label linked to tyrosine at 126. The results of this assay are shown in Table 2 as the ratio of bound-to-free labeled rANP(99-126) in the presence and absence of competing compound.

| Molecule | inhibition at 10 µM [1] [%] | Ki [2] [nM] | other results |
| --- | --- | --- | --- |
| CC[C@H](C)[C@H](NC(=O)[C@H](CCCNC(=N)N)NC(=O)[C@H](CC(=O)O)NC(=O)[C@@H](NC(=O)[C@H](CCCNC(=N)N)NC(=O)CNC(=O)CNC(=O)C(CS)Cc1ccccc1)[C@@H](C)CC)C(N)=O (stereo partly drawn) [Analog 1, MBP-G-G-R-I-D-R-I-NH2] (X1-GGRIDRI-NH2) | 92 | 19.6 | inhibition at 0.02 µM [1]: 0%; inhibition at 0.1 µM [1]: 23%; inhibition at 1 µM [1]: 45%; IC50 ([1]; approximate, from Table 3, read-out: ED50 of inhibition): ~1000 nM |
| O=C(O)CNC(=O)C(CS)Cc1ccccc1 (centres unmarked) [Thiorphan, thiorphan, reference compound] | 92 | – | inhibition at 0.02 µM [1]: 12%; inhibition at 0.1 µM [1]: 53%; inhibition at 1 µM [1]: 67% |
| CC[C@H](C)[C@H](NC(=O)[C@H](CCCNC(=N)N)NC(=O)[C@H](CC(=O)O)NC(=O)[C@@H](NC(=O)[C@H](CCCNC(=N)N)NC(=O)Cc1ccc(NC(=O)[C@H](Cc2ccccc2)NC(Cc2ccccc2)C(=O)O)cc1)[C@@H](C)CC)C(N)=O (stereo partly drawn) [Analog 445, F[N]F-4-APA-R-I-D-R-I-NH2] | 0 | 6.5 | – |
| rANP(99-126): native 28-residue rat ANP, unlabeled competitor in the rat kidney binding assay [reference compound] | – | – | Ratio of Bound/Free (125I)rANP(99-126), Whole Kidney [3]: 0.56 |
| CC[C@H](C)[C@H](NC(=O)[C@H](CCCNC(=N)N)NC(=O)[C@H](CC(=O)O)NC(=O)[C@@H](NC(=O)[C@H](CCCNC(=N)N)NC(=O)CNC(=O)CNC(Cc1ccccc1)C(=O)NO)[C@@H](C)CC)C(N)=O (some centres unmarked) [Analog 702] (H-[X4]GRIDRI-NH2) | – | 4.6 | – |
| CC[C@H](C)[C@H](NC(=O)[C@H](CCCNC(=N)N)NC(=O)[C@H](CC(=O)O)NC(=O)[C@@H](NC(=O)[C@H](CCCNC(=N)N)NC(=O)CC[C@H](NC(=O)[C@H](Cc1ccccc1)NC(CCc1ccccc1)C(=O)O)C(=O)O)[C@@H](C)CC)C(N)=O (some centres unmarked) [Analog 544] | – | 58.2 | – |
| F--[N]--F--G--G--R--I--D--R--I--NH2 [Analog 436] | – | – | Ratio of Bound/Free (125I)rANP(99-126), Whole Kidney [3]: 1.31 |
| CC[C@H](C)[C@H](NC(=O)[C@H](CCCNC(=N)N)NC(=O)[C@H](CC(=O)O)NC(=O)[C@@H](NC(=O)[C@H](CCCNC(=N)N)NC(=O)CNC(=O)[C@H](CC(=O)O)NC(=O)[C@H](Cc1ccccc1)NC(Cc1ccccc1)C(=O)O)[C@@H](C)CC)C(N)=O (some centres unmarked) [Analog 463] | – | 225 | – |

Second part, led by results:

| inhibition at 10 µM [1] [%] | Ki [2] [nM] | Molecule | other results |
| --- | --- | --- | --- |
| 97 | 10.9 | CC[C@H](C)[C@H](NC(=O)[C@H](CCCNC(=N)N)NC(=O)[C@H](CC(=O)O)NC(=O)[C@@H](NC(=O)[C@H](CCCNC(=N)N)NC(=O)Cc1ccc(NC(=O)C(CS)Cc2ccccc2)cc1)[C@@H](C)CC)C(N)=O (stereo partly drawn) [Analog 122, MBP-4-APA--R--I--D--R--I--NH2] (X1-[X2]RIDRI-NH2) | inhibition at 0.02 µM [1]: 12%; inhibition at 0.1 µM [1]: 25%; inhibition at 1 µM [1]: 72% |
| – | 202 | CC[C@H](C)[C@H](NC(=O)[C@H](CCCNC(=N)N)NC(=O)[C@H](CC(=O)O)NC(=O)[C@@H](NC(=O)[C@H](CCCNC(=N)N)NC(=O)CC[C@H](NC(=O)C(CS)Cc1ccccc1)C(=O)O)[C@@H](C)CC)C(N)=O (some centres unmarked) [Analog 78] ({X1-γGlu}-RIDRI-NH2) | – |
| – | 11.5 | CC[C@H](C)[C@H](NC(=O)[C@H](CCCNC(=N)N)NC(=O)[C@H](CC(=O)O)NC(=O)[C@@H](NC(=O)[C@H](CCCNC(=N)N)NC(=O)CNC(=O)CCNC(Cc1ccccc1)C(=O)O)[C@@H](C)CC)C(N)=O (some centres unmarked) [Analog 427] (X3-GRIDRI-NH2) | – |
| – | 115 | CC[C@H](C)[C@H](NC(=O)[C@H](CCCNC(=N)N)NC(=O)[C@H](CC(=O)O)NC(=O)[C@@H](NC(=O)[C@H](CCCNC(=N)N)NC(=O)CNC(=O)[C@@H](CC(=O)O)NC(=O)C(CS)Cc1ccccc1)[C@@H](C)CC)C(N)=O (some centres unmarked) [Analog 23] (X1-[dD]GRIDRI-NH2) | – |
| 97 | – | CC(C)C[C@H](NP(=O)(O)O[C@@H]1O[C@@H](C)[C@H](O)[C@@H](O)[C@H]1O)C(=O)N[C@@H](Cc1c[nH]c2ccccc12)C(=O)O [Phosphoramidon, phosphoramidon, reference compound] | inhibition at 0.02 µM [1]: 0%; inhibition at 0.1 µM [1]: 30%; inhibition at 1 µM [1]: 80% |
| – | 66.9 | CC[C@H](C)[C@H](NC(=O)[C@H](CCCNC(=N)N)NC(=O)[C@H](CC(=O)O)NC(=O)[C@@H](NC(=O)[C@H](CCCNC(=N)N)NC(=O)CNC(=O)CNC(Cc1ccccc1)C(=O)O)[C@@H](C)CC)C(N)=O (some centres unmarked) [Analog 364] | – |
| – | 27.3 | CC[C@H](C)[C@H](NC(=O)[C@H](CCCNC(=N)N)NC(=O)[C@H](CC(=O)O)NC(=O)[C@@H](NC(=O)[C@H](CCCNC(=N)N)NC(=O)CNC(=O)CNC(=O)[C@H](Cc1ccccc1)NC(Cc1ccccc1)C(=O)O)[C@@H](C)CC)C(N)=O (some centres unmarked) [Analog 436] | – |
| – | 207 | CC[C@H](C)[C@H](NC(=O)[C@H](CCCNC(=N)N)NC(=O)[C@H](CC(=O)O)NC(=O)[C@@H](NC(=O)[C@H](CCCNC(=N)N)NC(=O)CNC(=O)[C@H](CC(=O)O)NC(=O)C(CS)Cc1ccccc1)[C@@H](C)CC)C(N)=O (some centres unmarked) [Analog 12] (X1-DGRIDRI-NH2) | – |
